{
  "source": "patent US8198317B2",
  "about": "“Methylenedioxy phenolic compounds and their use to treat disease” (The Ohio State University Research Foundation, priority 2008, dated 2012)",
  "key": {"LDL receptor": {"tested_on": "LDL receptor", "assay": "LDL receptor mRNA by RT-PCR in HepG2 cells", "type": "cell-based, human", "details": "HepG2, time dependent and dose dependent", "description": "FIG. 5E is graph showing time course of low density lipoprotein receptor (LDLR) messenger RNA (mRNA) with INV-75 assessed by quantitative real time polymerase chain reaction (RT-PCR). A total of three experiments were performed. *, p<0.01 by ANOVA compared to vehicle.\nFIG. 5F is a graph showing dose dependency experiments of low density lipoprotein receptor (LDLR) messenger RNA (mRNA) measurement with INV-75. HepG2 cells were stimulated with multiple concentrations of INV-75 for 1 hour and LDL mRNA expression was measured by quantitative real time polymerase chain reaction (RT-PCR). A total of three experiments were performed. *, p<0.01 by ANOVA compared to vehicle. Dose of INV-75 is log molar concentration.\nNext we investigated the effect of INV-75 in regulating LDL receptor expression in the same cells using a similar protocol to assess dose and temporal dependence. FIGS. 5E and 5F depict the time course of LDL receptor expression and dose dependence in response to INV-75. […] INV-75 had no effects on SREBP-1 regulation (data not shown). Simultaneously multiple genes involved in cholesterol synthesis and regulation, apolipoprotein gene expression and expression of PCSK9 (Proprotein convertase subtilisin/kexin type 9) was tested. […]"}, "[1]": {"tested_on": "Watanabe Heritable Hyperlipidemic Rabbits (WHHL)", "assay": "Quantitative RT-PCR of genes in thoracic aorta of WHHL rabbits", "type": "in vivo, rabbit", "description": "Total RNA was isolated with TRIzol reagent (Invitrogen). Four microgram of total RNA was reverse transcribed by random hexamers and ThermoScript RT-PCR System (Invitrogen). Quantitative real-time PCR was performed with the Stratagene Mx3005 using SYBER Green PCR Master Mix (Applied Biosystems, Foster City, Calif.). Relative expression level compared to GAPDH was obtained. The primers used in the experiment are depicted in the table below and were purchased from Invitrogen."}, "[2]": {"tested_on": "thoracic aorta of WHHL rabbits", "assay": "Organ chamber experiments on thoracic aortic rings of WHHL rabbits", "type": "in vivo, rabbit", "description": "Rabbits were euthanized by injection of lethal doses of pentobarbital. The ascending aortas was removed and 2 mm thoracic aortic rings were suspended in individual organ chambers filled with physiological salt solution buffer (sodium chloride, 130 mEq/L; potassium chloride, 4.7 mEq/L; calcium dichloride, 1.6 mEq/L; magnesium sulfate, 1.17 mEq/L; potassium diphosphate, 1.18 mEq/L; sodium bicarbonate, 14.9 mEq/L; EDTA, 0.026 mEq/L; and glucose, 99.1 mg/dL [5.5 mmol/L]; pH, 7.4), aerated continuously with 5% carbon dioxide in oxygen at 37° C. Vessels were allowed to equilibrate for at least 1 hour at a resting tension of 30 mN before being subjected to graded doses of agonists as described previously. The vasoconstrictor agonists included phenylephrine (PE), endothelin-1 (ET-1), or angiotensin II. Responses were expressed as a percentage of the peak response to 120 mEq/L of potassium chloride. The vessels subjected to PE were washed thoroughly and allowed to equilibrate for 1 hour before beginning experiments with acetylcholine, sodium nitroprusside (SNP) or insulin. […] Results were expressed as a percentage of pre-contraction by PE (0.1 μM). The rings exposed to acetylcholine were thoroughly washed and allowed to equilibrate for 1 hour. […] Results were expressed as a percentage of pre-contraction by PE (0.1 μM). INV-75 decreased aortic contraction by angiotensin II but had no effect on phenylephrine (FIG. 15 and FIG. 16)."}, "Acetyl-CoA Oxidase (ACO)": {"tested_on": "Acetyl-CoA Oxidase (ACO)", "assay": "ACO mRNA (PPARα regulated gene) by RT-PCR in HepG2 cells", "type": "cell-based, human", "details": "HepG2, dose dependent and time dependent", "description": "ACO is a PPAR-α regulated gene. HepG2 cells were stimulated by INV 75 (100 μM) for the indicated time, the mRNA expression level of ACO was analyzed by real-time RT-PCR. n=3. *, p<0.05 vs 0.\nCells were stimulated with INV-75 for 4 hours, and mRNA expression level of acetyl co-enzyme A oxidase (ACO) analyzed by real-time RT-PCR. n=3. *, p<0.05 vs −8.5.\nWe used a reporter gene assay in HepG2 cells to screen for agonists of the peroxisome proliferator-activated receptors. Peroxisome proliferator-activated receptors (PPARs) and other members of the nuclear hormone receptor family are important drug targets for the treatment of metabolic diseases. PPARs play crucial roles in lipid and glucose metabolism, respectively. Therefore, screening methods that help to rapidly identify activators of these receptors should be of considerable value. INV-75 activated a classic PPARα gene, Acetyl-CoA Oxidase (ACO) in a dose dependent and time dependent fashion (FIG. 6A). The time course experiment was performed in presence of INV-75 up to 15 hours. […] We next tested the specificity of INV-75 for PPARα by performing experiments in HepG2 cells transfected with yeast GAL4-PPARα-LBD plasmid+UAS-Luciferase; GAL4-PPARδ-LBD plasmid+UAS-Luciferase and GAL4-PPARα-LBD plasmid+UAS-Luciferase. […]"}},
  "data": [
    {"smiles": "CC(=O)Oc1cc2c(cc1[N+](=O)[O-])OCO2", "note": "[INV-75, 3,4-methylenedioxy-6-nitrophenyl acetate]", "values": [
      {"measurement": "LDL receptor expression", "setting": "LDL receptor", "value": "increases"},
      {"measurement": "mRNA expression of ICAM-1", "setting": "[1]; WHHL thoracic aorta", "value": "decreased"},
      {"measurement": "mRNA expression of L-selectin", "setting": "[1]; WHHL thoracic aorta", "value": "decreased"},
      {"measurement": "mRNA expression of MCP-1", "setting": "[1]; WHHL thoracic aorta", "value": "decreased"},
      {"measurement": "mRNA expression of VCAM-1", "setting": "[1]; WHHL thoracic aorta", "value": "decreased"},
      {"measurement": "mRNA expression of the angiotensin II Type I receptor", "setting": "[1]; WHHL, data not shown", "value": "decreased"},
      {"measurement": "aortic contraction by angiotensin II", "setting": "[2]; in words", "value": "decreased"},
      {"measurement": "effect on insulin relaxation", "setting": "[2]; in words", "value": "marginal (non-significant effect"},
      {"measurement": "effect on phenylephrine response", "setting": "[2]; in words", "value": "no effect"},
      {"measurement": "effect on response to endothelin-1", "setting": "[2]; in words", "value": "no effects"},
      {"measurement": "effect on SNP response", "setting": "[2]; results not shown", "value": "no effects"},
      {"measurement": "Acetyl-CoA Oxidase (ACO) gene activation", "setting": "Acetyl-CoA Oxidase (ACO)", "value": "activated"}
    ]}
  ]
}
